# Results published in patent US20060270643A1, “Hyfroxyflutamide induced pathways related to androgen receptor negative prostate cancer cells” (priority 2002, published 2006).
# How the values were obtained:
# [1] = tested on: MAP kinase in PC-3 stably transfected with AR (PC3-AR2); test: Immunoblot of phospho-ERK1/2 in PC3-AR2 cells; type: cell-based, human; conditions: 15 mins
# [2] = tested on: MAP kinase in LNCaP cells; test: Immunoblot of phospho-ERK1/2 in LNCaP cells; type: cell-based, human; conditions: LNCaP cells (data not shown)
# [3] = tested on: cyclin D1 promoter (−1745D1-Luc); test: Cyclin D1 promoter luciferase reporter assay in DU145 cells; type: cell-based, human; conditions: 10^−6 M HF or 30 ng/ml EGF
# Experimental: (§1) 11. […] (A) DU145 cells were treated with HF (1 μM), or EGF (10 ng/ml), or ethanol vehicle for 12 hours after the serum starvation. Cells were lysed and blotted with anti-cyclin D1 antibody. (B) DU145 cells were serum starved for 24 hours and then co-transfected DN Ras or DN Raf together with […] Luc reporter with SuperFect (Qiagen). After 4 hours, the medium was changed to normal medium (10% serum) for 18 hours and then changed to serum starvation condition for another 24 hours and then treated with HF, EGF, or ethanol vehicle control. Cells were lysed for luciferase activity analysis.
# 197. DU145 cells were obtained from American Type Culture Collection and cultured in Dubecco's modified Eagles's medium (DMEM) supplemented with 10% fetal bovine serum (FBS). Cells (1×10^5) were seeded in 35 mm plates and transfected with the SuperFect transfection reagent (Qiagen, Chatworth, Calif.). After 4 hours the media were changed to serum-free DMEM media for 24 hours. Thereafter, the cells were treated with HF, EGF, and vehicle for 18 hours and then lysed for luciferase assay. Luciferase activity was normalized for taansfection efficiency using pRL-TK as an internal control. Luciferase assays were performed using dual-luciferase reporter system (Promega, Madison, Wis.).
# cyclin D1 = test: Western blot of cyclin D1 and cell cycle related gene products in DU145 cells; type: cell-based, human
# Experimental: as §1
# [4] = tested on: association between Ras and Raf; test: Ras-Raf immunoprecipitation assay in DU145 cells; type: cell-based, human; conditions: lysates of treated DU145 cells; 1 μM HF, 10 ng/ml EGF, 1 μM 9-cis retinoic acid
# Experimental: 8. […] (A) DU145 cells were treated with ethanol (lane 1), 10 ng/ml EGF (lane 2), 1 μM 9-cis retinoic acid (lane 3), and 1 μM HF (lane 4) after 24 hour serum starvation. Cells were lysed and 300 μg of total protein were immunoprecipitated with anti-Ras antibody, pulled-down by a protein A/G agarose beads, and detected with an anti-Raf antibody. (B) DU145 cells were transfected with pCDNA3.1 or pCDNA3.1-Ras N17 as indicated. After 24 hours serum starvation, the cells were treated with different ligands for 20 min, and then harvested. Western blots were performed with antibodies against phosphoERK1/2 and ERK1/2. The density of phospho-ERK1/2 shown as Optical Density (OD) were determined by the Versa Doc Imaging System (Bio-Rad) and quantified by Quantity One software.
# 200. Serum-stared and treated DU145 cells were lysed with RIPA buffer for 30 min on ice. Lysates were then centrifuiged at 12,000 g for 10 min at 4° C. and protein concentrations were determined by the Bradford assay. 500 μg of cell lysates were incubated for 4 hours with either anti-Ras or anti-EGFR antibody (1/100, Santa Cruz Biotechnology) to the protein-antibody mixture and then added in 20 μl of protein A/G plus-agarose (Santa Cruz Biotechnology) for another 4 hours incubation with constant rotation. The immunoprecipitates were washed four times with cold PBS, resolved by SDS-PAGE, and immunoblotted by anti-Raf-1 antibody, or anti-phospho-tyrosine monoclonal antibody (Oncogene Research, Calbiochem, La Jolla, Calif.). The results were visualized by chemiluminescence.
# [5] = tested on: p44/42 MAP kinase (ERK1 and 2); test: Immunoblot of phosphorylated p44/42 MAP kinase in DU145 cells; type: cell-based, human
# Experimental: 7. […] (A) DU145 cells were grown in 100 mm dishes and serum-starved for 24 hours. The cells were lysed on ice. Equal amounts of cell lysate were analyzed by 12% SDS-PAGE and subsequent immunoblotted with anti-phospho ERK1/2 and anti-ERK1/2 antibodies. (B) Different cell lines, at 70 to 80% confluence, were lysed and immunoblotted with anti-AR polyclonal antibody, NH27. (C) DU145 cells were pre-incubated with MEK1/2 inhibitor U0126, or U0124 before HF, EGF, and ethanol treatment. Cells were lysed and immunoblotted with anti-phospho ERK1/2 and anti-ERK1/2 antibodies. (D) CWR2 and (E) PC3-AR cells were grown in 100 mm dishes and serum-starved for 24 hours. The cells were treated with HF, EGF or ethanol vehicle for 15 mins and immunoblotted with anti-phospho-ERK1/2 and anti-ERK1/2 antibodies. […] MMTV-ARE-Luc reporter plasmid was cotransfected with or without pSG5AR into DU145 cells. After 18 hours, cells were treated with 1 nM DHT, 1 μM HF or both for another 18 hours, and then harvested. Cell lysates were collected and assayed for the luciferase activity.
# (§2) 9. […] After 15 min treatment, cells were lysed and immunoblotted with anti-phospho ERK1/2 and antiERK1/2 antibodies. […] EGFR was immunoprecipitated from the cell lysates, and their phosphotyrosine level was determined by anti-phosphotyrosine antibody. All the results were visualized using enhanced chemiluminescence.
# 198. This assay uses a polyclonal antibody specific against the activated p44/42 MAP kinases (Cell Signaling Technology, Beverly, Mass.), which detects p44 and p42 MAP kinase (ERK1 and 2) only when catalytically activated by dual phosphorylation at Thr202 and Tyr204. DU145 cells were seeded at 1×10^5 cells per 100 mm plate and allowed to attach overnight and then the media were replaced with serum-free DMEM media for 24 hours. The cells were pre-treated with MAP kinase inhibitors, EGFR antibodies, or cycloheximide for 1 hour and followed by HF, EGF, or vehicle treatment. Cells were washed twice with PBS, harvested at indicated times, and lyzed with RIPA buffer for 30 min on ice. The protein concentrations were determined by Bradford assay, and equal amount of protein was resolved by SDS-PAGE. Gels were transferred, immunoblotted with p44/42 MAP kinase antibody (1/1000), and then incubated with secondary antibody. Proteins were visualized by the enhanced chemiluminescence system (NEN™ Life Science Products, Boston, Mass.). P44/42 MAP kinase (total ERK1/2) was blotted as a control.
# EGFR = biological target: T1, EGFR (Homo sapiens, UniProt P00533); test: EGFR immunoprecipitation and anti-phosphotyrosine immunoblot in DU145 cells; type: cell-based; conditions: 1 μM HF, 20 min
# T1 construct: endogenous in cells; host or cells: DU145
# T1 sequence (P00533 25-1210): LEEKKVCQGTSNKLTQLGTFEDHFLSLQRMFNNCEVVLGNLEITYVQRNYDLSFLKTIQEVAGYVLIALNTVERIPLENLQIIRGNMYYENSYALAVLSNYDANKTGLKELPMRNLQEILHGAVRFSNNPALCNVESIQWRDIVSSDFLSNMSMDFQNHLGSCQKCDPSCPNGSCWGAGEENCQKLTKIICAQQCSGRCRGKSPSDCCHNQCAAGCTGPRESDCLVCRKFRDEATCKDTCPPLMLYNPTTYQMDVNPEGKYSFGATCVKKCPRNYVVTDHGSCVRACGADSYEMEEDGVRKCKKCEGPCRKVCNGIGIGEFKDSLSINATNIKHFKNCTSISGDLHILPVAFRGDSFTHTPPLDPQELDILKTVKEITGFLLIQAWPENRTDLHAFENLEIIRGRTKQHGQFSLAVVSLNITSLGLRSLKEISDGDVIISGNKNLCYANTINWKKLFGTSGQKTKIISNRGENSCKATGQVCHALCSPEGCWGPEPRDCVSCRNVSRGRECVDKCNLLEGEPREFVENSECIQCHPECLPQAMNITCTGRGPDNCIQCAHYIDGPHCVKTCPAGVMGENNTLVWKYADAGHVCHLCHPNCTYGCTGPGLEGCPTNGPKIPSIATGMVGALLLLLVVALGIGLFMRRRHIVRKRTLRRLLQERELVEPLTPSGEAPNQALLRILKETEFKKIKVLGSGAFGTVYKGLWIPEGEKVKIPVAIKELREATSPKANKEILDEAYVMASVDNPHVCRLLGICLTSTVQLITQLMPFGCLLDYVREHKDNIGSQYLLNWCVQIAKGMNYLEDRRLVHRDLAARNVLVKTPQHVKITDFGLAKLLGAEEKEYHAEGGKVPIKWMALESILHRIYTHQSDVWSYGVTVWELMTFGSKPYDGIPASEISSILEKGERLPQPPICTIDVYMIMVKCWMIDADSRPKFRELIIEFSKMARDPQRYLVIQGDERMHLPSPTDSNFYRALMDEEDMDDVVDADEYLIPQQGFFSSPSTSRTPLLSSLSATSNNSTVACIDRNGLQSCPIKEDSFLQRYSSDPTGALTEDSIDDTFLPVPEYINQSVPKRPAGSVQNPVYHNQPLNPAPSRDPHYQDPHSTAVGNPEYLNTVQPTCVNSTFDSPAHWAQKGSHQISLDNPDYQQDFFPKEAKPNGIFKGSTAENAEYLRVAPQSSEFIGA
# Experimental: as §2
# [6] = tested on: MAP kinase in CWR22 cells; test: Immunoblot of phospho-ERK1/2 in CWR22 cells; type: cell-based, human; conditions: 15 mins
# [7] = HF at 1 μM, serum-starved DU145 cells
smiles,measurement,setting,value
"CC(C)(O)C(=O)Nc1ccc([N+](=O)[O-])c(C(F)(F)F)c1 [HF, hydroxyflutamide]",MAP kinase activation,[1],activates MAP kinase
same,MAP kinase activation,[2],not
same,induction of cyclin D1 promoter (−1745D1-Luc) activity,[3],about 2 fold
same,cyclin D1 expression,cyclin D1; HF (1 μM) or EGF (10 ng/ml) for 12 hours after serum starvation,induced
same,"other cell cycle related gene products (p27, p21, Ki67, PCNA)",cyclin D1; after HF- or EGF-treatment,no significant change
same,Raf detected in the Ras immunocomplex,[4],detected
same,activation of MAP kinase as compared to EGF activation,[5],relatively weak
same,total MAP kinase (ERK1/2) protein expression,[5]; DU145 cells,no influence
same,time to activate MAP kinase,[5]; [7],≤ 15 min
same,time to reach maximum MAP kinase activation,[5]; [7],30 min
same,autophosphorylation of EGFR,EGFR,causes the autophosphorylation of EGFR
same,MAP kinase activation,[6],activates MAP kinase
